Common to all, as to assay type: cell-based
In assay [1] the target is T1, hP2X7 (Homo sapiens, UniProt Q99572).
T1 construct: expressed in transfected cells; host or cells: HEK-293, stably transfected (gift of E. Adinolfi's group, Ferrara University)
T1 sequence (Q99572 1-595): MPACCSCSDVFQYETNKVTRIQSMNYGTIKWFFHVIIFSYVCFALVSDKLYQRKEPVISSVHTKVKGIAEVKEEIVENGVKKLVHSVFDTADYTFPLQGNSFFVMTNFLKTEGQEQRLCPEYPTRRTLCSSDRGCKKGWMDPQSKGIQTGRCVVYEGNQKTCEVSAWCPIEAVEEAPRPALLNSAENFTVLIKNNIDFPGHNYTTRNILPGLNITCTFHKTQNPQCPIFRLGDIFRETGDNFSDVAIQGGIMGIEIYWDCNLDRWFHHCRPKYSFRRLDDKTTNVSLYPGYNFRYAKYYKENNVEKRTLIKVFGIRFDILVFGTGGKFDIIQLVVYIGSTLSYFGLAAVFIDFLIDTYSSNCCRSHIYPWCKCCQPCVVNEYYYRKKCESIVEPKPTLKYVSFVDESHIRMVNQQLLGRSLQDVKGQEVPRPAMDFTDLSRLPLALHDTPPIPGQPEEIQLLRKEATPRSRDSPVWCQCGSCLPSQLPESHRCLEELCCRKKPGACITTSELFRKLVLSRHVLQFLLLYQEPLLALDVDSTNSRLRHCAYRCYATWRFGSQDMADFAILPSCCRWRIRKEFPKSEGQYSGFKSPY
Kind of assay: YO-PRO 1 dye uptake assay, 1321 N1 cells stably transfected with hP2X7. As to conditions: compound 30 μM, 700 μM ATP; for reduction of P2X7 activation: 0.3% DMSO. On the procedure:
(§1) Astrocytoma 1321 N1 (established by Dr. Gaia Pasqualetto) and HEK-293 (kindly gifted by E. Adinolfi’s group, Ferrara University) both stably transfected with hP2X7, were used to assess the activity of the small molecules selected from the VS. Cells were maintained in DMEM:F12 (PanBiotech) supplemented with 10% FBS, 1% pen-strep, and 150 μg/mL G418 (PanBiotech).
(§2) Astrocytoma 1321 N1 cells (2–2.5 × 10^4 cells/well) and HEK-293 cells (4–5 × 10^4 cells/well) expressing hP2X7 were seeded in poly-L-lysine-coated 96-well plates (Sarstedt) 24 h before the experiment. YO-PRO 1 dye was prepared at 5 μM in extracellular solution with low divalent cations (ECS-LD) buffer (147 mM NaCl, 10 mM HEPES, 13 mM glucose, 0.2 mM CaCl2, 2 mM KCl, pH 7.4) and added to cells after washing them with Dulbecco’s phosphate- buffered saline (DPBS) (PanBiotech) and incubated for 20 min at 37 °C. ATP-induced dye uptake, mediated by hP2X7 activation, was monitored using a Clariostar plate reader (excitation: 485 nm; emission: 538 nm) for 30 cycles (75–150 s/cycle), after recording the baseline for five cycles. hP2X7 activation was quantified at cycle 10 by calculating the fluorescence intensity (FI) ratio (Δ(Fcycle 10–F cycle 1)/cycle time).
The P2X7 receptor, besides being a ligand-gated ion channel, forms large membrane pores following prolonged exposure to high concentrations of ATP, leading to apoptosis (Mackenzie et al. 2005). The YO-PRO 1 dye uptake assay, which measures dye influx through these pores, was selected as the primary screen. The fluorescence of YO-PRO 1 increases when it binds to DNA, enabling real-time monitoring of P2X7 activation (calculated as the rate of increase in fluorescence as YO-PRO 1 binds nuclear DNA).
The screening compounds were tested at 30 μM (0.3% DMSO) in 5 μM YO-PRO 1 dye diluted in freshly prepared ECS-LD buffer. Cells pretreated with the screening compounds were challenged with 700 μM ATP, and the fluorescence intensities were recorded. The negative control consisted of cells treated with 0.3% DMSO, while the positive control was 0.1 μM JNJ47965567, a selective P2X7 antagonist. ,
(§3) 2 Initial screening assays to identify hit compounds. (A) The compounds were screened at 30 μM in the YO-PRO 1 dye uptake using 1321 N1 cells stably transfected with hP2X7. Compound activity was evaluated along a time of 20 min (75 s per cycle) after ATP addition (700 μM). The fluorescence intensity (FI) values of the first 10 cycles were considered for assessing their ability to inhibit hP2X7. Compound responses were normalized to the fluorescent signal recorded on 0.3% DMSO cells treated with 700 μM ATP of each plate. […] (B) Compounds screened at 10 μM using MPR using 1321 N1 cells stably transfected with hP2X7. The compound activity was evaluated for 5 min after ATP addition (15 s per cycle). The fluorescence intensity recorded in the first cycles (before reaching a plateau response) was considered for assessing the small molecule’s ability to inhibit hP2X7. Compound responses were normalized to the fluorescence signal recorded on 0.1% DMSO cells treated with 700 μM ATP of each plate. […] One-way ANOVA and Dunnet test were used for statistical analysis (****P < 0.0001), (*P < 0.02).

For assay [2], the target named is T1, hP2X7. Kind of assay: YO-PRO 1 dye uptake assay, HEK-293 cells stably transfected with hP2X7. The conditions noted are these: for IC50: Table 1, table names no assay, values of 2 and 9 are from YO-PRO 1 dye uptake in hP2X7 HEK-293 cells, read-out: IC50; for reduction of hP2X7 activity / hP2X7 inhibition in YO-PRO 1 dye uptake, SAR: analogues at 10 μM; for reduction of hP2X7 activity: YO-PRO 1, 1 mM ATP, 0.1% DMSO; for hP2X7 inhibition in YO-PRO 1 dye uptake, SAR: 1 mM ATP. Here is the method: as §1, §2
Compounds 2 and 9, identified as hits, were further evaluated for concentration-dependent inhibition (IC50) of hP2X7 activation in the YO-PRO 1 dye uptake assay using HEK-293 cells stably transfected with hP2X7 (unfortunately, at this point in the study, the stably transfected 1321N1 cells lost P2X7 expression, and we were unable to recover them from frozen aliquots), for which the ATP EC50 was determined to be approximately 1 mM (Supporting material Figure 4C). Seven concentrations (100 to 0.03 μM) were tested, but due to precipitation at 100 μM, the DMSO concentration was increased to 1%.
3 Inhibitory concentration response evaluation of compounds 2 and 9 and their groups highlighted for SAR. […] Compound activity was evaluated along a time of 20 min (75 s per cycle) after ATP addition (700 μM). The fluorescence intensity (FI) values of the first 10 cycles were considered for assessing their ability to inhibit hP2X7. The curves represent three biological replicates (n = 4 per replicate). Data were normalized by setting as 100% the FI recorded by hP2X7 HEK-293 cells incubated in 1% DMSO and stimulated by ATP, and as 0% the FI recorded by the same cells but treated with ECS-LD (assay buffer). (C) Highlighted areas of compound 2 considered for SAR study. R1 refers to the ethyl-benzyl group of the molecules, and R2 and R3 refer to the benzo-(1,3)-dioxol groups. (D) Highlighted areas of compound 9 considered for SAR study. We have defined the area highlighted in yellow and numbered as 1 as the “front” region of the molecule and the one colored in pink and named as 2 as the “back” region of the molecule. L highlights the urea and amide linkers of compounds 2 and 9, respectively.
4 Evaluation of compound 2 and 9 analogue activity using YO-PRO 1 and MPR assays. The activity of compound 2 (A and B) and 9 (C and D) analogues was evaluated in YO-PRO 1 (A and C) and MPR (B and D) assays. The compounds were tested at 10 μM and preincubated for either 20 (YO-PRO 1) or 30 min (MPR). The baseline was recorded for 5 cycles before ATP treatment (1 mM). Fluorescence was recorded for 25 (YO-PRO 1) or 5 min (MPR). The data were normalized by setting as 100% for the fluorescence measured from hP2X7 HEK-293 cells incubated with vehicle (0.1% DMSO) and treated with 1 mM ATP and 0% for the fluorescence recorded by the cells not treated with ATP. The data shown correspond to three independent biological replicates (3 technical replicates per experiment; error bars represent the SEM from the mean values of each biological replicate (n = 3)). The statistical analysis was performed with one-way Anova using Dunnett’s function (P**** < 0.0001; P*** < 0.0003; P** < 0.002; P* < 0.02).

The target in assay [3] is T1, hP2X7. The assay is described as follows: Membrane Potential Red (MPR) dye assay, 1321 N1 cells stably transfected with hP2X7. The conditions noted are these: compound 10 μM, 700 μM ATP.
The target in assay [4] is T1, hP2X7. The assay is described as above. As to conditions: P2X7; compound 10 μM, 700 μM ATP. Here is the method: as §1
Cells were plated as described for the YO-PRO 1 dye uptake assay. MPR dye (Molecular Devices) was prepared following the manufacturer’s protocol and diluted 1:10 in ECS-LD buffer. After washing with DPBS, cells were incubated with the dye for 30 min at 37 °C. Fluorescence changes (excitation: 525 nm; emission: 560 nm) were recorded using a Clariostar plate reader during ATP-induced membrane depolarization. Baseline fluorescence was recorded for 5 cycles, and ATP was added via an automated injector (10 μL). Membrane depolarization was quantified as the ratio of the maximal fluorescence change over baseline intensity (Δ(F max–F0)/F0)).
as §3, with “0.02). […]” for “0.02).”

The structures appear in SMILES notation. Entries after “also recorded” stand apart in the source; their conditions may differ.

As to `O=C(NCc1ccccc1)NC1(C(=O)NCc2ccccc2Cn2ccnc2)CCCC1` [Compound 8], at hP2X7 [1], the “activity in YO-PRO 1 dye uptake screen” value was “antagonist activity” and the “reduction of P2X7 activation” value is on record as “at least 50%”. The IC50 on hP2X7 [2] was determined as 4.07 µM. Also, the “activity in MPR screen, hP2X7-induced membrane depolarization” value (“activity in MPR screen” for short) on hP2X7 [3] was “did not also block”.
In the case of `O=C(NCc1ccc(Oc2ccc(F)cc2)cc1)c1ccccc1CN1C(=O)CNC1=O` [Compound 4], the “activity in YO-PRO 1 dye uptake screen” value at hP2X7 [1] is reported as “no significant activity”. The same compound displayed an inhibition at 10 µM against hP2X7 [4] of around 90%. In addition, the “activity in MPR screen” value at hP2X7 [3] is on record as “statistically inhibited”.
In the case of `CCOc1ccc(NC(=O)NC(Cc2ccc(F)cc2)Cc2ccc3c(c2)OCO3)cc1` (stereo not shown) [Compound 2h], the “reduction of hP2X7 activity” value at hP2X7 [2] is reported as 80%.
In the case of `COc1ccc(CC(Cc2ccc3c(c2)OCO3)NC(=O)Nc2ccc(C)c(F)c2)cc1` (stereo not shown) [Compound 2b], the “hP2X7 inhibition in YO-PRO 1 dye uptake, SAR” value (“hP2X7 inhibition” for short) on hP2X7 [2] is listed as “diminished hP2X7 inhibition”.
For the compound `CN(C)C(=O)Cn1cc(NC(=O)c2cnc(-c3ccc4c(c3)OCO4)s2)cn1` [Compound 9a], at hP2X7 [2], the “hP2X7 inhibition” value is listed as “reduced activity”.
Turning to `O=C(COC(=O)c1cccnc1SCC(=O)Nc1ccc2c(c1)OCO2)NCc1ccco1` [Compound 9c], on hP2X7 [2], the “hP2X7 inhibition” value is recorded as “compromised activity”.
`COc1ccc(CCNC(=O)Nc2ccc3c(c2)OCO3)cc1OC` [Compound 2j]: the “hP2X7 inhibition” value at hP2X7 [2] is “reduced activity compared to 2”.
Turning to `O=C(NCCc1ccc2c(c1)OCO2)NCCN1CCN(c2ccccc2)CC1` [Compound 2f], the “hP2X7 inhibition” value at hP2X7 [2] is “reduced activity compared to 2”.
As for `O=C(CSc1ncccc1C(=O)Nc1ccc(-n2cnnn2)cc1)Nc1ccc2c(c1)OCO2` [Compound 9d], the “hP2X7 inhibition” value on hP2X7 [2] is recorded as “activity comparable to that of 9”.
As for `CCOC(=O)c1ccccc1NC(=O)NC(Cc1ccc(OC)cc1)Cc1ccc2c(c1)OCO2` (stereo not shown) [Compound 2e], at hP2X7 [2], the “hP2X7 inhibition” value is listed as “diminished hP2X7 inhibition”.
On to `CN(C)S(=O)(=O)c1cccc(COC(=O)c2cccnc2SCC(=O)Nc2ccc3c(c2)OCO3)c1` [Compound 9h], for which the “hP2X7 inhibition” value on hP2X7 [2] is on record as “activity comparable to that of 9; also recorded: enhanced target inhibition”.
Take `COc1cccc(NC(=O)CSc2ccccc2C(=O)NCc2cn3ccccc3n2)c1` [Compound 6]: on hP2X7 [1], the “activity in YO-PRO 1 dye uptake screen” value is listed as “antagonist activity” and the “reduction of P2X7 activation” value was “at least 50%”. In addition, the IC50 on hP2X7 [2] was determined as 20.9 µM. The “activity in MPR screen” value on hP2X7 [3] is given as “did not also block”.
On to `O=C(Nc1ccc(F)cc1F)NC(Cc1ccc2c(c1)OCO2)Cc1ccc2c(c1)OCO2` [Compound 2c], for which the “reduction of hP2X7 activity” value on hP2X7 [2] is recorded as 80%.
Turning to `CC(C)NC(=O)NC(Cc1ccc2c(c1)OCO2)Cc1ccc2c(c1)OCO2` [Compound 2a], on hP2X7 [2], the “hP2X7 inhibition” value is “reduced antagonist effects”.
With `Cc1nn(-c2ccccc2)c(C)c1NC(=O)NCc1ccccc1Cn1cccn1` [Compound 7], at hP2X7 [1], the “activity in YO-PRO 1 dye uptake screen” value is “antagonist activity” and the “reduction of P2X7 activation” value is recorded as “at least 50%”. Further, the IC50 at hP2X7 [2] came out at 4.23 µM. At hP2X7 [3], the “activity in MPR screen” value is listed as “did not also block”.
Turning to `O=C(CSc1ncccc1C(=O)N1CCN(c2ccccc2F)CC1)Nc1ccc2c(c1)OCO2` [Compound 9e], the “hP2X7 inhibition” value on hP2X7 [2] is on record as “activity comparable to that of 9; also recorded: enhanced target inhibition”.
For the compound `CNC(=O)NC(Cc1ccc(F)cc1)Cc1ccc2c(c1)OCO2` (stereo not shown) [Compound 2d], the “hP2X7 inhibition” value on hP2X7 [2] is “reduced antagonist effects”.

Values taken from article PMC12264943, “Identification of New Human P2X7 Antagonists Using Ligand- and Structure-Based Virtual Screening” (Journal of Chemical Information and Modeling, 2025).
